Laboratory results reported in patent publication US9108944B2, “Androgen receptor modulators and uses thereof” (ARAGON PHARMACEUTICALS, INC., priority 2010, dated 2015).

Experiments:
AR-VP16 [1] = biological target: T1, AR-VP16 (Homo sapiens, UniProt P10275); experiment: AR-VP16 DNA Binding Assay, agonist mode (HepG2 cells); format: cell-based; details: Emax >20x DMSO control = agonist
T1 sequence (P10275 560-920 limits assumed): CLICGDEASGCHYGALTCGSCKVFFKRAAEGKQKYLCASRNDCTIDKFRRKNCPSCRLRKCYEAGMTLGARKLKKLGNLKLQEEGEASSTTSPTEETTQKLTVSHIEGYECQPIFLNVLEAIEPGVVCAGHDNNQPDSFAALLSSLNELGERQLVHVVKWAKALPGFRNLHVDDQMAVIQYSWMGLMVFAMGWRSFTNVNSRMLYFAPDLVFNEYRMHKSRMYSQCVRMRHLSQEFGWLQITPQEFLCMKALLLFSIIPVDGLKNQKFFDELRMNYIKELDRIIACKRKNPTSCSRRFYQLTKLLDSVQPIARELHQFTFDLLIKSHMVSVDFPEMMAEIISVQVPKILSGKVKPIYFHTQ

AR-VP16 [2] = biological target: T1, AR-VP16; experiment: AR-VP16 DNA Binding Assay, antagonist mode (HepG2 cells, 0.1 nM R1881); format: cell-based
Summary of the method: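 HepG2 cells transiently transfected with AR-VP16 (Lipofectin), incubated overnight, then treated with compound in RPMI with charcoal-stripped serum. Antagonist mode adds R1881 at 0.1 nM final. Cells lysed after 48 h incubation for read-out.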

| SMILES | ARVP16 DNA Binding Assay (Agonist mode): Agonist? (AR-VP16 [1]) | IC50 (AR-VP16 [2]) |
| --- | --- | --- |
| Cc1ccc(N2C(=S)N(c3cnc(C#N)c(C)c3)C(=O)C23CCC3)cc1 [Compound 31, 3-Methyl-5-(8-oxo-6-thioxo-5-(p-tolyl)-5,7-diazpiro[3.4]octan-7-yl)picolinonitrile] | No (Agonist defined as a compound whose Emax in the ARVP16 DNA Binding Assay (Agonist mode) is >20x DMSO control) | < 1000 nM |
| COc1cc(N2C(=S)N(c3cnc(C#N)c(C(F)(F)F)c3)C(=O)C23CCC3)ccc1F [Compound 32, 5-(5-(4-fluoro-3-methoxyphenyl)-8-oxo-6-thioxo-5,7-diazaspiro[3.4]octan-7-yl)-3-(trifluoromethyl)picolinonitrile] | No (Agonist defined as a compound whose Emax in the ARVP16 DNA Binding Assay (Agonist mode) is >20x DMSO control) | < 1000 nM |
| Cc1ccc(N2C(=S)N(c3cnc(C#N)c(C(F)(F)F)c3)C(=O)C2(C)C)cc1 [Compound 33, 5-(4,4-Dimethyl-5-oxo-2-thioxo-3-(p-tolyl)imidazolidin-1-yl)-3-(trifluoromethyl)picolinonitrile] | No (Agonist defined as a compound whose Emax in the ARVP16 DNA Binding Assay (Agonist mode) is >20x DMSO control) | < 1000 nM |
| Cc1ccc(N2C(=S)N(c3ccc(C#N)c(C(F)(F)F)n3)C(=O)C23CCC3)cc1 [Compound 34, 6-(8-Oxo-6-thioxo-5-(p-tolyl)-5,7-diazaspiro[3.4]octan-7-yl)-2-(trifluoromethyl)nicotinonitrile] | No (Agonist defined as a compound whose Emax in the ARVP16 DNA Binding Assay (Agonist mode) is >20x DMSO control) | > 1000 nM |
| CNC(=O)c1ccc(N2C(=S)N(c3ccc(C#N)c(C(F)(F)F)n3)C(=O)C23CCC3)cc1F [Compound 35, 4-(7-(5-Cyano-6-(trifluoromethyl)pyridin-2-yl)-8-oxo-6-thioxo-5,7-diazaspiro[3.4]octan-5-yl)-2-fluoro-N-methylbenzamide] | No (Agonist defined as a compound whose Emax in the ARVP16 DNA Binding Assay (Agonist mode) is >20x DMSO control) | > 1000 nM |
| N#Cc1ncc(N2C(=O)C3(CCC3)N(c3ccc(F)cc3O)C2=S)cc1C(F)(F)F [Compound 38, 5-(5-(4-Fluoro-2-hydroxyphenyl)-8-oxo-6-thioxo-5,7-diazaspiro[3.4]octan-7-yl)-3-(trifluoromethyl)picolinonitrile] | No (Agonist defined as a compound whose Emax in the ARVP16 DNA Binding Assay (Agonist mode) is >20x DMSO control) | > 1000 nM |
| N#Cc1ncc(N2C(=O)C3(CCC3)N(c3ccc(Oc4cccnc4)cc3)C2=S)cc1C(F)(F)F [Compound 39, 5-(8-Oxo-5-(4-(pyridin-3-yloxy)phenyl)-6-thioxo-5,7-diazaspiro[3.4]octan-7-yl)-3-(trifluoromethyl)picolinonitrile] | Yes (Agonist defined as a compound whose Emax in the ARVP16 DNA Binding Assay (Agonist mode) is >20x DMSO control) | < 1000 nM |
| N#Cc1ncc(N2C(=O)C3(CCC3)N(c3ccc(Oc4ccncc4)cc3)C2=S)cc1C(F)(F)F [Compound 40, 5-(8-Oxo-5-(4-(pyridin-4-yloxy)phenyl)-6-thioxo-5,7-diazaspiro[3.4]octan-7-yl)-3-(trifluoromethyl)picolinonitrile] | No (Agonist defined as a compound whose Emax in the ARVP16 DNA Binding Assay (Agonist mode) is >20x DMSO control) | < 1000 nM |
| N#Cc1ncc(N2C(=O)C3(CCC3)N(c3ccc(OC(F)(F)F)cc3)C2=S)cc1C(F)(F)F [Compound 44, 5-(8-Oxo-6-thioxo-5-(4-(trifluoromethoxy)phenyl)-5,7-diazaspiro[3.4]octan-7-yl)-3-(trifluoromethyl)picolinonitrile] | No (Agonist defined as a compound whose Emax in the ARVP16 DNA Binding Assay (Agonist mode) is >20x DMSO control) | < 1000 nM |
| N#Cc1ncc(N2C(=O)C3(CCC3)N(c3cccc(OC(F)(F)F)c3)C2=S)cc1C(F)(F)F [Compound 45, 5-(8-Oxo-6-thioxo-5-(3-(trifluoromethoxy)phenyl)-5,7-diazaspiro[3.4]octan-7-yl)-3-(trifluoromethyl)picolinonitrile] | No (Agonist defined as a compound whose Emax in the ARVP16 DNA Binding Assay (Agonist mode) is >20x DMSO control) | < 1000 nM |
| N#Cc1ncc(N2C(=O)C3(CCC3)N(c3ccc(C(F)(F)F)cc3)C2=S)cc1C(F)(F)F [Compound 46, 5-(8-Oxo-6-thioxo-5-(4-(trifluoromethyl)phenyl)-5,7-diazaspiro[3.4]octan-7-yl)-3-(trifluoromethyl)picolinonitrile] | No (Agonist defined as a compound whose Emax in the ARVP16 DNA Binding Assay (Agonist mode) is >20x DMSO control) | < 1000 nM |
| Cc1ccc(N2C(=S)N(c3cnc(C#N)c(C(F)(F)F)c3)C(=O)C23CCC3)cc1F [Compound 49, 5-(5-(3-Fluoro-4-methylphenyl)-8-oxo-6-thioxo-5,7-diazaspiro[3.4]octan-7-yl)-3-(trifluoromethyl)picolinonitrile] | No (Agonist defined as a compound whose Emax in the ARVP16 DNA Binding Assay (Agonist mode) is >20x DMSO control) | < 1000 nM |
| Cc1ccc(N2C(=S)N(c3cnc(C#N)c(C(F)(F)F)c3)C(=O)C23CCC3)c(F)c1 [Compound 50, 5-(5-(2-Fluoro-4-methylphenyl)-8-oxo-6-thioxo-5,7-diazaspiro[3.4]octan-7-yl)-3-(trifluoromethyl)picolinonitrile] | No (Agonist defined as a compound whose Emax in the ARVP16 DNA Binding Assay (Agonist mode) is >20x DMSO control) | < 1000 nM |
| N#Cc1ncc(N2C(=O)C3(CCC3)N(c3ccc4cnccc4c3)C2=S)cc1C(F)(F)F [Compound 51, 5-(5-(Isoquinolin-6-yl)-8-oxo-6-thioxo-5,7-diazaspiro[3.4]octan-7-yl)-3-(trifluoromethyl)picolinonitrile] | No (Agonist defined as a compound whose Emax in the ARVP16 DNA Binding Assay (Agonist mode) is >20x DMSO control) | < 1000 nM |
| Cc1cc(N2C(=O)C3(CCC3)N(c3ccc(O)c(F)c3)C2=S)cnc1C#N [Compound 54, 5-(5-(3-Fluoro-4-hydroxyphenyl)-8-oxo-6-thioxo-5,7-diazaspiro[3.4]octan-7-yl)-3-methylpicolinonitrile] | No (Agonist defined as a compound whose Emax in the ARVP16 DNA Binding Assay (Agonist mode) is >20x DMSO control) | > 1000 nM |
| Cc1ccc(N2C(=S)N(c3cnc(C#N)c(Cl)c3)C(=O)C23CCC3)cc1 [Compound 57, 3-Chloro-5-(8-oxo-6-thioxo-5-(p-tolyl)-5,7-diazaspiro[3.4]octan-7-yl)picolinonitrile] | No (Agonist defined as a compound whose Emax in the ARVP16 DNA Binding Assay (Agonist mode) is >20x DMSO control) | < 1000 nM |
| COc1cc(N2C(=O)C3(CCC3)N(c3ccc(C)cc3)C2=S)cnc1C#N [Compound 59, 3-Methoxy-5-(8-oxo-6-thioxo-5-(p-tolyl)-5,7-diazaspiro[3.4]octan-7-yl)picolinonitrile] | No (Agonist defined as a compound whose Emax in the ARVP16 DNA Binding Assay (Agonist mode) is >20x DMSO control) | < 1000 nM |
| CNC(=O)c1ccc(N2C(=S)N(c3cnc(C#N)c(OC)c3)C(=O)C23CCC3)cc1F [Compound 60, 4-(7-(6-Cyano-5-methoxypyridin-3-yl)-8-oxo-6-thioxo-5,7-diazaspiro[3.4]octan-5-yl)-2-fluoro-N-methylbenzamide] | Yes (Agonist defined as a compound whose Emax in the ARVP16 DNA Binding Assay (Agonist mode) is >20x DMSO control) | < 1000 nM |
| Cc1ccc(N2C(=S)N(c3cnc(-c4cccnc4)c(C(F)(F)F)c3)C(=O)C23CCC3)cc1 [Compound 61, 6-Thioxo-5-(p-tolyl)-7-(3-(trifluoromethyl)-[2,3′-bipyridin]-5-yl)-5,7-diazaspiro[3.4]octan-8-one] | No (Agonist defined as a compound whose Emax in the ARVP16 DNA Binding Assay (Agonist mode) is >20x DMSO control) | > 1000 nM |
| Cc1ccc(N2C(=S)N(c3ccc4nccn4c3)C(=O)C23CCC3)cc1 [Compound 62, 7-(Imidazo[1,2-a]pyridin-6-yl)-6-thioxo-5-(p-tolyl)-5,7-diazaspiro[3.4]octan-8-one] | No (Agonist defined as a compound whose Emax in the ARVP16 DNA Binding Assay (Agonist mode) is >20x DMSO control) | > 1000 nM |
| Cc1ccc(N2C(=S)N(c3cnc(C#N)c4ccccc34)C(=O)C23CCC3)cc1 [Compound 65, 4-(8-Oxo-6-thioxo-5-(p-tolyl)-5,7-diazaspiro[3.4]octan-7-yl)isoquinoline-1-carbonitrile] | Yes (Agonist defined as a compound whose Emax in the ARVP16 DNA Binding Assay (Agonist mode) is >20x DMSO control) | < 1000 nM |
| N#Cc1ncc(N2C(=O)C3(CCC3)N(c3ccccc3CO)C2=S)cc1C(F)(F)F [Compound 68, 5-(5-(2-(Hydroxymethyl)phenyl)-8-oxo-6-thioxo-5,7-diazaspiro[3.4]octan-7-yl)-3-(trifluoromethyl)picolinonitrile] | No (Agonist defined as a compound whose Emax in the ARVP16 DNA Binding Assay (Agonist mode) is >20x DMSO control) | > 1000 nM |
